Numbering of substitutions follows the chain as printed.
How the values were obtained:
CCRF-CEM = assay: NCI 60 antitumor screening (single dose / five doses); assay type: cell-based; details: Homo sapiens; for inhibition at 10 µM: CCRF-CEM (leukaemia), single dose 10 μM, read-out: Growth inhibition percentage (GI %); for GI50: CCRF-CEM, five doses (0.01–100 μM), read-out: GI50
HOP-92 = assay: as above; assay type: cell-based; details: Homo sapiens; for inhibition at 10 µM: HOP-92 (non-small cell lung cancer), single dose 10 μM, read-out: Growth inhibition percentage (GI %); for GI50: HOP-92, five doses (0.01–100 μM), read-out: GI50
SNB-75 = assay: as above; assay type: cell-based; details: Homo sapiens; for inhibition at 10 µM: SNB-75 (CNS cancer), single dose 10 μM, read-out: Growth inhibition percentage (GI %); for GI50: SNB-75, five doses (0.01–100 μM), read-out: GI50
NCI/ADR-RES = assay: as above; assay type: cell-based; details: Homo sapiens; for inhibition at 10 µM: NCI/ADR-RES (ovarian cancer), single dose 10 μM, read-out: Growth inhibition percentage (GI %); for GI50: NCI/ADR-RES, five doses (0.01–100 μM), read-out: GI50
A498 = assay: as above; assay type: cell-based; details: Homo sapiens; for GI50: A498, five doses (0.01–100 μM), read-out: GI50; for inhibition at 10 µM: A498 (renal cancer), single dose 10 μM, read-out: Growth inhibition percentage (GI %)
SN 12C = assay: as above; assay type: cell-based; details: Homo sapiens, SN12C; for inhibition at 10 µM: SN 12C (renal cancer), single dose 10 μM, read-out: Growth inhibition percentage (GI %); for GI50: SN 12C, five doses (0.01–100 μM), read-out: GI50
IDH2^R140Q = target: T1, IDH2^R140Q (Homo sapiens, UniProt P48735, R140Q); assay: biochemical
T1 sequence (P48735 40-452 R140Q): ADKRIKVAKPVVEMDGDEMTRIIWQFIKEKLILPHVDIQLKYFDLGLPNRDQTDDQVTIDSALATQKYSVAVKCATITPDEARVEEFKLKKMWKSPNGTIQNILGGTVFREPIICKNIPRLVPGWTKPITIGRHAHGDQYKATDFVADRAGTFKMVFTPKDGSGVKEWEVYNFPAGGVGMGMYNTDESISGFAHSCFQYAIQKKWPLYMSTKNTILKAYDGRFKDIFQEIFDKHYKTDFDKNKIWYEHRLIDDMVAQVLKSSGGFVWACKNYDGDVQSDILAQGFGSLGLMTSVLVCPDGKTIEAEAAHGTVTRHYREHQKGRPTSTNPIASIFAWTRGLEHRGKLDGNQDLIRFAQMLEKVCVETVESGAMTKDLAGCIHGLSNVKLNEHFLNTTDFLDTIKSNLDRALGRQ

wild type IDH2 = target: T2, wild type IDH2 (Homo sapiens, UniProt P48735); assay: IDH2 enzyme inhibition assay (wild type IDH Assay Kit)
T2 sequence (P48735 40-452): T1 sequence (P48735 40-452 R140Q) with Q101R

Row | SMILES | inhibition at 10 µM (CCRF-CEM) [%] | GI50 (CCRF-CEM) [nM] | inhibition at 10 µM (HOP-92) [%] | GI50 (HOP-92) [nM] | inhibition at 10 µM (SNB-75) [%] | GI50 (SNB-75) [nM] | inhibition at 10 µM (NCI/ADR-RES) [%] | GI50 (NCI/ADR-RES) [nM] | GI50 (A498) [nM] | inhibition at 10 µM (SN 12C) [%] | GI50 (SN 12C) [nM] | IC50 (IDH2^R140Q) [nM] | inhibition at 10 µM (A498) [%] | IC50 (wild type IDH2) [nM]
1 | Oc1ccccc1/C=N/Nc1nc(N/N=C/c2ccccc2O)nc(N2CCOCC2)n1 [compound 6a, 2-[(1e)-(2-{4-[(E)-2-[(2-Hydroxyphenyl)methylidene]hydrazin-1-yl]-6-(morpholin-4-yl)-1,3,5-triazin-2-yl}hydrazin-1-ylidene)methyl]phenol] | 57.6 | 530 | 87.2 | 1650 | 104 | 1820 | 77.1 | 690 | 1090 | 72.8 | 18300 | 373 ± 18.2 |  | 
2 | Brc1cccc(/C=N/Nc2nc(N/N=C/c3cccc(Br)c3)nc(N3CCCCC3)n2)c1 [compound 7c, 2,4-Bis[(E)-2-[(3-Bromophenyl)methylidene]hydrazin-1-yl]-6-(piperidin-1-yl)-1,3,5-triazine] | 18.7 |  | -12.8 |  | -17.3 |  | 9.29 |  |  | -1.41 |  | 88.9 ± 4.34 | 12.2 | 3130 ± 120
3 | Fc1cccc(/C=N/Nc2nc(N/N=C/c3cccc(F)c3)nc(N3CCCCC3)n2)c1 [compound 7e, 2,4-Bis[(E)-2-[(3-Fluorophenyl)methylidene]hydrazin-1-yl]-6-(piperidin-1-yl)-1,3,5-triazine] | 41.3 |  | -16 |  | -14.6 |  | 23.9 |  |  | 5.08 |  | 176 ± 8.6 | 15.7 | 5070 ± 200
4 | Oc1ccccc1/C=N/Nc1nc(N/N=C/c2ccccc2O)nc(N2CCCCC2)n1 [compound 7a, 2-[(1e)-(2-{4-[(E)-2-[(2-Hydroxyphenyl)methylidene]hydrazin-1-yl]-6-(piperidin-1-yl)-1,3,5-triazin-2-yl}hydrazin-1-ylidene)methyl] phenol] | 78.3 |  | 21.6 |  | 25.6 |  | 81 |  |  | 40.5 |  | 130 ± 6.35 | 17 | 5420 ± 210
5 | Clc1cccc(/C=N/Nc2nc(N/N=C/c3cccc(Cl)c3)nc(N3CCCCC3)n2)c1 [compound 7d, 2,4-Bis[(E)-2-[(3-Chlorophenyl)methylidene]hydrazin-1-yl]-6-(piperidin-1-yl)-1,3,5-triazine] | 25 |  | -7.89 |  | -2.48 |  | 4.8 |  |  | 7.63 |  | 370 ± 18 | 7.8 | 
6 | CN(C)c1ccc(/C=N/Nc2nc(N/N=C/c3ccc(N(C)C)cc3)nc(N3CCCCC3)n2)cc1 [compound 7g, 4-[(1e)-(2-{4-[(E)-2-{[4-(dimethylamino)phenyl]methylidene}chydrazin-1-yl]-6-(piperidin-1-yl)-1,3,5-triazin-2-yl}hydrazin-1-ylidene)methyl]-N,N-dimethylaniline] | 74.2 | 1210 | 16 | 1470 | -1.39 | 2800 | 41.7 | 3190 | 1580 | 49.6 | 1870 | 505 ± 24.7 | -15.1 | 
7 | Clc1cccc(/C=N/Nc2nc(N/N=C/c3cccc(Cl)c3)nc(N3CCOCC3)n2)c1 [compound 6d, 2,4-Bis[(E)-2-[(3-chlorophenyl)methylidene]hydrazin-1-yl]-6-(morpholin-4-yl)-1,3,5-triazine] | 75.2 | 1340 | 34.5 | 2170 | -2.64 | 3330 | 38.2 | 4580 | 1670 | 40.1 | 4990 | 1870 ± 91.2 | 95.7 | 
